Data set [1] concerns Tubulin α1 (Tα1) promoter. Description: cells. The conditions noted are these: for LOAEL Neurons Tα1: ESC-derived neurons, 48 h exposure. In a few lines: (§1)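 Mouse CGR8 ESCs carrying Tα1-firefly and EF1α-Renilla luciferase reporters, treated either undifferentiated (48 h exposure after 24 h plating) or as MS5-induced neurons (exposure day 6 to day 8). Dual-luciferase luminescence expressed as % promoter activity versus DMSO control wells; 5 µM methylmercury as positive control.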

Data set [2] concerns undifferentiated pluripotent stem cells (ESCs). Description: Dual luminescence reporter test system, undifferentiated ESCs (readout not separated). The format is cell-based, mouse. The conditions noted are these: for effect on promoter activities in undifferentiated cells: non-cytotoxic concentrations; for In vitro EC20 in ESC: in vitro toxicity data expressed as EC20. From the text:
(§2) Fig. 1 Synopsis of experimental protocols. The impact of compounds on neural promoter activity (FLuc, Firefly Luciferase under the control of the Tα1 promoter), general promoter activity (RLuc, Renilla Luciferase under the control of the EF1α promoter), and amount of DNA (PI, propidium iodide fluorescence in cell homogenates) was investigated in undifferentiated mouse embryonic pluripotent stem cells (ESCs) and on ESC-derived neurons. Arrows indicate the time of measurement of the three parameters. a Protocol for testing compounds effects on ESCs. CGR8-2Luc cells were plated on gelatin-coated 96-well plates in maintenance medium (BHK21 medium containing 10 % FCS, L-glutamine, NEAA, P/S, and LIF). Twenty-four hours later, cells were exposed to compounds for forty-eight hours. b Protocol for testing compounds on ESC-derived neurons. CGR8-2Luc cells were co-cultured with MS5 cells to induce neural differentiation in DMEM medium containing 15 % KO-serum, NEAA, β-mercaptoethanol, and P/S. On day 5, cells were detached and seeded on polyornithine-coated plates in DMEM medium containing N2 supplement, bFGF, and P/S; compound exposure was from day 6 to day 8
(§3) To test compounds on ESC-derived neurons, neuronal differentiation was carried out as previously described (Suter et al. [2009]; Xu et al. [2014]). Briefly, CGR8-2Luc cells were seeded on irradiated bone marrow-derived stromal MS5 cells and cultivated for 4 days in DMEM medium containing 15 % Knock-out™ Serum Replacement, non-essential amino acids, beta-mercaptoethanol, and penicillin/streptomycin. At day 5, cells were then re-plated (3 × 10^5 cells/cm^2) on polyornithine-coated 96-well plates in N2 medium containing DMEM, N2 supplement, penicillin/streptomycin, and 10 ng/ml basic human fibroblast growth factor (bFGF) (Invitrogen). […] To assess toxicity of compounds on undifferentiated pluripotent stem cells (ESCs), CGR8-2Luc cells were plated at 45,000 cells/cm^2 on 0.1 % gelatin-coated dishes in BHK21 medium, supplemented with 10 % fetal calf serum, L-glutamine, non-essential amino acids, penicillin/streptomycin, and leukemia inhibitory factor (LIF). After 24 h, compounds were added and incubated for 48 h, before luciferase expression and PI fluorescence were analyzed. In all experiments, methylmercury was used as a positive control at a concentration of 5 µM.
(§4) Luciferase activities were measured with a Dual-Luciferase™ Reporter system kit. CGR8-2Luc ES cells were lysed in 96-well plates according to the manufacturer’s instructions. Luminescence measurements were performed on a Fluostar Optima reader. Luminescence counts were expressed as percentage of promoter activity normalized by comparison with the control wells treated by DMSO. […] parameters were measured in homogenates of ESCs and in ESC-derived neurons: (1) FLuc, reflecting the activity of early neural promoter Tα1. FLuc increases during neuronal differentiation. Many neurotoxic compounds may affect FLuc expression, either through impact on neuronal differentiation, through changes of neuronal gene expression, or through killing of neurons.
After measurement of luciferase activity, DNA quantity was determined by PI assay, as previously described (Xu et al. [2014]). PI was added to cell homogenates after the luciferase test, at a final concentration of 50 µg/ml and incubated for 2 h. After incubation, fluorescence intensity was measured on a Flexstation 3 microplate reader (Excitation: 544 nm ± 15 nm; Emission: 620 nm ± 15 nm). Results are expressed as percentage of control. Propidium iodide (PI) measures total DNA content as an approximation of the cell number.

Data set [3] relates to EF1α promoter. The conditions noted are these: for LOAEL ESC EF1α: undifferentiated ESCs. In a few lines: as §1
The subject of data set [4] is Tubulin α1 (Tα1) promoter. The settings on record: for LOAEL ESC Tα1: undifferentiated ESCs, 48 h exposure, lowest tested concentration with statistically significant decrease. The procedure, abridged:
as §1

The conditions of data set [5]: cited from earlier work.
In data set [6] the test system is ESC-derived neurons. The settings on record: for In vitro EC20 in ESC-derived neurons: in vitro toxicity data expressed as EC20.
Text: as §2, §3, §4
After measurement of luciferase activity, DNA quantity was determined by PI assay, as previously described (Xu et al. [2014]). […] After incubation, fluorescence intensity was measured on a Flexstation 3 microplate reader (Excitation: 544 nm ± 15 nm; Emission: 620 nm ± 15 nm). Results are expressed as percentage of control. […]

For data set [7] the following is noted: Table S1, three classes; ref per compound in the footnotes of Table S1; cited from earlier work.
Setting [8] is: ESC-derived neurons, 48 h exposure.

Like-named read-outs stand apart in the source and are kept apart here. Marks after values point to notes of the source that are not given here.

For `Nc1ccccc1NC(=O)c1ccc(CNC(=O)OCc2cccnc2)cc1` [Entinostat], in data set [1], the “LOAEL Neurons Tα1” value is given as 0.5 µM. In data set [2], the “effect on promoter activities in undifferentiated cells” value (“effect … in undifferentiated cells” below) is recorded as “enhanced the activities of neuronal and/or general promoters”. For the same molecule, the “effect on general promoter activity in neurons” value in data set [3] was “enhanced”. In addition, the “LOAEL Neurons EF1α” value in data set [3] (setting [8]) is more than 50 µM. Moreover, the “LOAEL ESC EF1α” value in data set [3] (48 h exposure) is listed as 5 µM. The “LOAEL ESC Tα1” value in data set [4] came to 50 µM.

Turning to `C/C(O)=C(\C#N)C(=O)Nc1ccc(C(F)(F)F)cc1` [Teriflunomide], the Concentration in humans in data set [5] (ref Zimmer et al. ([2014])) is given as 10.8^k µM. In data set [1], the “effect on neural promoter activity in neurons” value was “increase” and the “LOAEL Neurons Tα1” value was found to be 50 µM. The “In vitro EC20 in ESC” value in data set [2] fell in the range of 4 to 40 µM. Besides, the “In vitro EC20 in ESC-derived neurons” value in data set [6] is 10 to 20 µM. Also, in data set [3] (mouse, 48 h), the “LOAEL Neurons EF1α” value was more than 50 µM. In data set [3] (48 h exposure), the “LOAEL ESC EF1α” value is more than 50 µM. Also, in data set [4], the “effect on neural promoter activity in ESCs” value is given as “increase” and the “LOAEL ESC Tα1” value was more than 50 µM.

As to `COC1=C2C[C@@H](C)C[C@H](OC)[C@H](O)[C@@H](C)/C=C(\C)[C@H](OC(N)=O)[C@@H](OC)/C=C\C=C(/C)C(=O)NC(=CC1=O)C2=O` [Geldanamycin], the Concentration in humans in data set [5] (ref Zimmer et al. ([2014])) is 0.8^k µM. For the same molecule, the “class based on clinical evidence for neurotoxicity” value (“class based on clinical evidence” below) in data set [7] was “Possibly (developmental)”. Further, the “LOAEL Neurons Tα1” value in data set [1] worked out at 0.05 µM. Also, the “In vitro EC20 in ESC” value in data set [2] is 0.01 µM. Besides, the “In vitro EC20 in ESC-derived neurons” value in data set [6] is 0.001 µM. Also, the “LOAEL Neurons EF1α” value in data set [3] (setting [8]) worked out at 0.05 µM. Moreover, the “LOAEL ESC EF1α” value in data set [3] (48 h exposure) came to 0.5 µM. In addition, the “LOAEL ESC Tα1” value in data set [4] stood at 0.005 µM.

For the molecule `[Br][Hg][Br]` [Mercury bromide], the “class based on clinical evidence” value in data set [7] is reported as “Possibly (developmental)”. Besides, the “LOAEL Neurons Tα1” value in data set [1] is listed as 10 µM. The “concentration up to which neurons were not affected” value in data set [6] was 5 µM. Further, the “LOAEL Neurons EF1α” value in data set [3] (setting [8]) is on record as more than 10 µM. Besides, the “LOAEL ESC EF1α” value in data set [3] (48 h exposure) is on record as 5 µM. The “LOAEL ESC Tα1” value in data set [4] was 5 µM.

Regarding `O=C(/C=C/c1cccc(S(=O)(=O)Nc2ccccc2)c1)NO` [Belinostat], the Concentration in humans in data set [5] (ref Wei et al. ([2014])) was 0.36^f µM. In data set [7], the “class based on clinical evidence” value is given as “Possibly (developmental)”. Besides, the “LOAEL Neurons Tα1” value in data set [1] is 0.0005 µM. The “effect … in undifferentiated cells” value in data set [2] is on record as “enhanced the activities of neuronal and/or general promoters”. In data set [3] (setting [8]), the “LOAEL Neurons EF1α” value came to 50 µM. The “LOAEL ESC EF1α” value in data set [3] (48 h exposure) is listed as 5 µM. Besides, in data set [4], the “LOAEL ESC Tα1” value is recorded as 5 µM.

`C[C@]12CC[C@H](O)CC1=CC[C@@H]1[C@@H]2CC[C@]2(C)C(c3cccnc3)=CC[C@@H]12` [Abiraterone]: the Concentration in humans in data set [5] (ref Zimmer et al. ([2014])) was 0.65^k µM. The “class based on clinical evidence” value in data set [7] is recorded as “Possibly (developmental)”. The “LOAEL Neurons Tα1” value in data set [1] is on record as 1 µM. Further, the “In vitro EC20 in ESC” value in data set [2] was 2 µM. In data set [6] (ESC-derived neurons, no change in cell number), the “concentration affecting neural differentiation (decrease of neuronal and general promoter activities)” value is reported as “higher than 0.5 µM”. Moreover, the “In vitro EC20 in ESC-derived neurons” value in data set [6] was determined as 0.7 µM. In addition, the “LOAEL Neurons EF1α” value in data set [3] (setting [8]) is given as 2 µM. In data set [3] (48 h exposure), the “LOAEL ESC EF1α” value is more than 2 µM. In addition, the “LOAEL ESC Tα1” value in data set [4] is recorded as more than 2 µM.

For the molecule `CCCC(CCC)C(=O)O` [Valproic acid], the Concentration in humans in data set [5] (ref Krug et al. ([2013b])) is listed as 500–1000^e µM. The “class based on clinical evidence” value in data set [7] is listed as “Well-established (developmental)”. Further, the “LOAEL Neurons Tα1” value in data set [1] worked out at 50 µM. For the same molecule, in data set [2], the “effect … in undifferentiated cells” value is on record as “enhanced the activities of neuronal and/or general promoters”. For the same molecule, the “LOAEL Neurons EF1α” value in data set [3] (setting [8]) is 5000 µM. Further, the “LOAEL ESC EF1α” value in data set [3] (48 h exposure) turned out to be 5000 µM. Also, the “LOAEL ESC Tα1” value in data set [4] worked out at 5000 µM.

Values taken from publication PMC5225183, “Fingerprinting of neurotoxic compounds using a mouse embryonic stem cell dual luminescence reporter assay” (Archives of Toxicology, 2016).
